We go through 1 compound from US20240216395A1, “19-NOR C3,3-DISUBSTITUTED C21 -N-PYRAZOLYL STEROID FOR USE IN TREATING MAJOR DEPRESSIVE DISORDER AND […]” (priority 2021, published 2024).

The subject of the data set is nondependent, recreational users of CNS depressants. The data set can be described thus: Abuse potential study: MOAA/S sedation scores (dose selection and main study). In kind it is in vivo, human. The conditions noted are these: dose selection, 60, 80 or 90 mg. How it is done: The first part of the study, dose selection, was a 3-cohort, randomized, double-blind, placebo-controlled, dose-escalation design to identify 2 doses higher than Compound (1)'s anticipated therapeutic dose (30 mg) to carry forward into the main study (FIG. 30A-30B) (U.S. Department of Health and Human Services Food and Drug Administration, Center for Drug Evaluation and Research (CDER). Assessment of abuse potential of drugs: guidance for industry. January, 2017; Griffiths R R, et al. Drug Alcohol Depend. 2003; 70(3):S41-54; Schoedel K, Sellers E. Clin Pharmacol Ther. 2008; 83(4):622-626). The 2 doses were selected based on their safety and tolerability in the dose selection phase, as assessed during sentinel dosing (described below) by the safety and tolerability endpoints (described below). […]
MOAA/S scores were assessed before dose administrations and at multiple time points (1, 2, 3, 4, 5, 6, 7, 8, 10, 12, and 24 hours) after dosing using a 6-point scale, ranging from 0 (no response after painful trapezius squeeze) to 5 (responds readily to name spoken in a normal tone; Table 18). Electrocardiogram measures and the C-SSRS were assessed during screening, admission, at Day 3, and/or at early termination, and AEs/SAEs were assessed on an ongoing basis during enrollment in the study. […]

For `C[C@@]1(O)CC[C@H]2[C@H](CC[C@@H]3[C@@H]2CC[C@]2(C)[C@@H](C(=O)Cn4cc(C#N)cn4)CC[C@@H]32)C1` [Compound (1), 1-(2-((3R,5R,8R,9R,10S,13S,14S,17S)-3-hydroxy-3,13-dimethylhexadecahydro-1H-cyclopenta[a]phenanthren-17-yl)-2-oxoethyl)-1H-pyrazole-4-carbonitrile], the “Time for all MOAA/S scores to return to baseline score of 5” value is not above 8 hours postdose. Also, the “MOAA/S score (mild sedation) in 1 to 4 participants of at least 1 cohort” value (2-7 hours postdose) is 2-4.
